Laboratory results as given in patent US10021879B2, “Fumigant compositions and methods based on hexafluoropropylene oxide (HFPO)” (priority 2016, dated 2018).

Legend:
Lolium multiflorum Lam = assay: Fumigant test on seed germination in soil, Lolium multiflorum Lam; type: in vivo; details: for Loliium multiflorum Lam (seeds germinated): 15 seeds in soil, 2 days exposure, counted after 10 days
Method: (§1) In particular, in 440 mL pressure vessels, fourteen seeds of Abutilon theophrasti Medik and fifteen seeds of Lolium multiflorum Lam were thoroughly mixed with 50 mL (approximately 30 grams) of soil and 6 ml of water. The filled vessels were kept at room temperature for 20-24 hours to allow the seeds to imbibe water before treatment. The vessels were sealed and evacuated, and then 80 ml, 160 ml and 440 ml, respectively, of gaseous HFPO was added. The vessels were thoroughly mixed and placed horizontally on the laboratory bench at ambient temperature for two days. The contents of each bottle were transferred to a plastic sterile Petri dish containing 7 mL of water. The Petri dishes were sealed with parafilm and incubated in the laboratory at ambient temperature. After 10 days, the number of germinated seeds was counted.

[1] = tested on: Abutilon theophrasti Medik; assay: Fumigant test on seed germination in soil, Abutilon theophrasti Medik; type: in vivo; details: for Abutilon theophrastic Medik (seeds germinated): 14 seeds in soil, 2 days exposure, counted after 10 days
Method: as §1

[2] = Volatility of aqueous fumigant compositions with and without surfactant (weight loss); type: physicochemical; details: 10 grams HFPO + 4.0 grams Tween 80 in 40.0 grams water vs. 10.0 grams HFPO in 40 grams water; 20° C., vent open, weight loss every 30 seconds; FIG. 1
Method: Experimentation was carried out to determine the volatility of aqueous fumigant compositions, both with and without inclusion of a surfactant. In each case, HFPO was placed in a chilled 500 ml Fischer Porter tube that was equipped with a vent to remove any gases. The vessel was cooled to 0° C. and was charged with varying amounts of water, HFPO and surfactant. The temperature was equilibrated to 20° C. and the reactor was placed on a balance. The vent tube was opened and the weight loss was recorded every 30 seconds.
In analyzing the effects of adding surfactant to an aqueous solution of HFPO, 10.0 grams of HFPO was added to 40 grams of water. In a separate experiment, 10 grams of HFPO and 4.0 grams of Tween™ 80 were added to 40.0 grams of water. FIG. 1 provides a graphical representation of the numerical data comparing the volatility of an aqueous solution of HFPO, both with and without inclusion of the Tween™ 80 nonionic surfactant.

[3] = 80 ml gaseous HFPO in 440 mL vessel
[4] = 160 ml gaseous HFPO in 440 mL vessel
[5] = 440 ml gaseous HFPO in 440 mL vessel

FC(F)(F)C1(F)OC1(F)F (stereo not drawn) [HFPO, 1,2-hexafluoropropylene oxide]
Loliium multiflorum Lam (seeds germinated) (Lolium multiflorum Lam; [3]): 0 seeds germinated
Loliium multiflorum Lam (seeds germinated) (Lolium multiflorum Lam; [4]): 0 seeds germinated
Loliium multiflorum Lam (seeds germinated) (Lolium multiflorum Lam; [5]): 0 seeds germinated
seed germination (in words) (Lolium multiflorum Lam; seeds of the grass weed species Lolium multiflorum Lam): completely prevented seed germination
Abutilon theophrastic Medik (seeds germinated) [1, 3]: 0 seeds germinated
Abutilon theophrastic Medik (seeds germinated) [1, 4]: 0 seeds germinated
Abutilon theophrastic Medik (seeds germinated) [1, 5]: 0 seeds germinated
seed germination (in words) ([1]; seeds of the broadleaf species Abutilon theophrasti Medik): completely prevented seed germination
retention of HFPO in aqueous solution (volatility) [2]: inclusion of the surfactant provides for longer retention of the HFPO in solution
